Data taken from ChEMBL document CHEMBL5291721, “A preclinical secondary pharmacology resource illuminates target-adverse drug reaction associations of marketed drugs” (Nat Commun, 2023).

How the values were obtained:
[1] = target: T1, Gamma-aminobutyric acid receptor subunit alpha-1/alpha-2/beta-2/gamma-2 (Homo sapiens, UniProt P14867+P18507+P47869+P47870); format: protein-complex assay
Estrogen receptor = target: T2, Estrogen receptor (Homo sapiens, UniProt P03372)
T2 sequence (P03372 whole entry): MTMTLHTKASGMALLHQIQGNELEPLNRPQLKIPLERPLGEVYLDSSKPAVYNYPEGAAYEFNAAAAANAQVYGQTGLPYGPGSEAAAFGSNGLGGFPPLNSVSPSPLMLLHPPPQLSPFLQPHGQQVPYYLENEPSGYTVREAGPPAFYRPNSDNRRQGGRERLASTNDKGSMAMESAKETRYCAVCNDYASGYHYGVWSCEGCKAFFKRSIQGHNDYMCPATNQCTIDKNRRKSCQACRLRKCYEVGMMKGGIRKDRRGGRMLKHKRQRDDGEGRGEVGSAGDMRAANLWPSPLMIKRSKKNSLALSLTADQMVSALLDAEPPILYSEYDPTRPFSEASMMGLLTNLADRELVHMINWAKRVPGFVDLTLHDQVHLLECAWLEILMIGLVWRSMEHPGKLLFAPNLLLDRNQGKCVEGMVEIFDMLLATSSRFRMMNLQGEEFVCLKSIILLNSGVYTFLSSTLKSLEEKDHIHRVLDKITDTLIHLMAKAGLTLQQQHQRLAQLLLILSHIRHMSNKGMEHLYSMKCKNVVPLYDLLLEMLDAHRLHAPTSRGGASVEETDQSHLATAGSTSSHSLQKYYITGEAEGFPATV

[2] = target: T3, Corticotropin-releasing factor receptor 2 (Homo sapiens, UniProt Q13324)
T3 sequence (Q13324 whole entry): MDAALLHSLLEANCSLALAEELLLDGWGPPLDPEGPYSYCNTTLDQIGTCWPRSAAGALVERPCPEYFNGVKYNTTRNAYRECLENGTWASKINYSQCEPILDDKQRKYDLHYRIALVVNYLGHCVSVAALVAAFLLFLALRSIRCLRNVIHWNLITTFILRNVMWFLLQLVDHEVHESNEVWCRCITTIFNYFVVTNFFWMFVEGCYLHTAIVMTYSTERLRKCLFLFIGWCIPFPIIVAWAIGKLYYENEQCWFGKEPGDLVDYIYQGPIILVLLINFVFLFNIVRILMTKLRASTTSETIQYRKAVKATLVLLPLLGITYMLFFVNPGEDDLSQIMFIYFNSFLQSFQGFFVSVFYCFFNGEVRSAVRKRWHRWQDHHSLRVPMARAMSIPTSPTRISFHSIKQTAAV

Cannabinoid receptor 1 = Cannabinoid receptor 1 (Homo sapiens, UniProt P21554)
Chain of Cannabinoid receptor 1 (P21554 whole entry): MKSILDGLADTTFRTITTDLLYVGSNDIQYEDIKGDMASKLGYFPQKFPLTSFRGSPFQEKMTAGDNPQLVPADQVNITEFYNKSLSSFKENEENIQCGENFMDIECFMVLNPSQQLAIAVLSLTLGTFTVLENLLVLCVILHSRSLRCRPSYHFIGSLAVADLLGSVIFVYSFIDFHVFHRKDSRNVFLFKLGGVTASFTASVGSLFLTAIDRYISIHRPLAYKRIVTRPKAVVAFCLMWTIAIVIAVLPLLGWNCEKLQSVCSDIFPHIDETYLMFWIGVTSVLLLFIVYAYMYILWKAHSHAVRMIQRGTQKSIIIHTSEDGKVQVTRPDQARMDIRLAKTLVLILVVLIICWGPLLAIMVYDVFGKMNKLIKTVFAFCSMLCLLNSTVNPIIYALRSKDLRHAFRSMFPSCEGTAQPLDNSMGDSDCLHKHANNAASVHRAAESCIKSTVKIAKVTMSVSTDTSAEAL

Histamine H2 receptor = Histamine H2 receptor (Homo sapiens, UniProt P25021)
Chain of Histamine H2 receptor (P25021 whole entry): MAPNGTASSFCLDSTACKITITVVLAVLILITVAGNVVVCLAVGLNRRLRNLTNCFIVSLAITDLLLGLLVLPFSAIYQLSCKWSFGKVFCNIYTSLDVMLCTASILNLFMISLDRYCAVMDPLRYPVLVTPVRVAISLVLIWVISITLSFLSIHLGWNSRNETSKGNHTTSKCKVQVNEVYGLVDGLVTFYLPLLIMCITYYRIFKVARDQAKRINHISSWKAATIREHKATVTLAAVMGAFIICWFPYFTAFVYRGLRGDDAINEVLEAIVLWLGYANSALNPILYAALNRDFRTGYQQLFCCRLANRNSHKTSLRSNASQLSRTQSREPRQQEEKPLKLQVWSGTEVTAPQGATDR

B1 bradykinin receptor = target: T4, B1 bradykinin receptor (Homo sapiens, UniProt P46663)
T4 sequence (P46663 whole entry): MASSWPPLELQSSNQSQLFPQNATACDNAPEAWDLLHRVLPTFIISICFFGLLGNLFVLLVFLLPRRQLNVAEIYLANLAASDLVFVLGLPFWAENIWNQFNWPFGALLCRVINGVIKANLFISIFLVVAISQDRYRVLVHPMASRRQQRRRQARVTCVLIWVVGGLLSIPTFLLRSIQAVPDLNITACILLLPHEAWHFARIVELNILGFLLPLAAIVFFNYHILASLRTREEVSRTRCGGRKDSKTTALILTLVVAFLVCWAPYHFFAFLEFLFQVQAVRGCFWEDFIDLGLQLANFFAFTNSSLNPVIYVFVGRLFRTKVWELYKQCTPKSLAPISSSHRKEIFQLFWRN

[3] = target: T5, Muscarinic acetylcholine receptor M1 (Homo sapiens, UniProt P11229); format: functional
T5 sequence (P11229 whole entry): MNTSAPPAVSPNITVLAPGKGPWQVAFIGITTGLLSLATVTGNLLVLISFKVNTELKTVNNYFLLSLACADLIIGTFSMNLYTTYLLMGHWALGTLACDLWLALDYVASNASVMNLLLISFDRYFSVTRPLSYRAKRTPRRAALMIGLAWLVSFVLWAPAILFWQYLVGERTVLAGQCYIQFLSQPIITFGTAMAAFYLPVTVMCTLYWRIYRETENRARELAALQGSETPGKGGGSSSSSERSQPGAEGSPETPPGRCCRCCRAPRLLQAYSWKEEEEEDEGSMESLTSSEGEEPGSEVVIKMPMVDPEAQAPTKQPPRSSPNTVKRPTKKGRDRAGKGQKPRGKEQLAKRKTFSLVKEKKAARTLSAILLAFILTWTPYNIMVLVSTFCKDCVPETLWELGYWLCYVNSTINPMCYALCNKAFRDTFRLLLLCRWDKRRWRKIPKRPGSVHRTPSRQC

[4] = target: T1, Gamma-aminobutyric acid receptor subunit alpha-1/alpha-2/beta-2/gamma-2; format: functional, cell-based
[5] = target: 5-hydroxytryptamine receptor 2A (Homo sapiens, UniProt P28223); format: functional, cell-based
Chain of 5-hydroxytryptamine receptor 2A (P28223 whole entry): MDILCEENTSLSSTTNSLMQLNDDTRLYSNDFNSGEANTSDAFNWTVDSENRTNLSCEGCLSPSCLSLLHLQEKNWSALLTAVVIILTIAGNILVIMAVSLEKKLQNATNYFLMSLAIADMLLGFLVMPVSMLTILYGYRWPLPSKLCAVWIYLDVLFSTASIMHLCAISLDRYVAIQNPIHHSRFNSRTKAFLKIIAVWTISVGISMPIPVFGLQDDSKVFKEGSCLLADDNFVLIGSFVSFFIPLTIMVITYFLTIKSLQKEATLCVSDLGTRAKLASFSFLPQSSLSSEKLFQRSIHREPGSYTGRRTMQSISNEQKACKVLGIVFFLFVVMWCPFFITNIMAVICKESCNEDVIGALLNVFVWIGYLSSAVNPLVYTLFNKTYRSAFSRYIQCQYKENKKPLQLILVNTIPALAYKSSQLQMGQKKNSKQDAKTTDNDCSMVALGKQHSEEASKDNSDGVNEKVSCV

Mu-type opioid receptor = Mu-type opioid receptor (Homo sapiens, UniProt P35372); experiment: biochemical; format: functional
Chain of Mu-type opioid receptor (P35372 whole entry): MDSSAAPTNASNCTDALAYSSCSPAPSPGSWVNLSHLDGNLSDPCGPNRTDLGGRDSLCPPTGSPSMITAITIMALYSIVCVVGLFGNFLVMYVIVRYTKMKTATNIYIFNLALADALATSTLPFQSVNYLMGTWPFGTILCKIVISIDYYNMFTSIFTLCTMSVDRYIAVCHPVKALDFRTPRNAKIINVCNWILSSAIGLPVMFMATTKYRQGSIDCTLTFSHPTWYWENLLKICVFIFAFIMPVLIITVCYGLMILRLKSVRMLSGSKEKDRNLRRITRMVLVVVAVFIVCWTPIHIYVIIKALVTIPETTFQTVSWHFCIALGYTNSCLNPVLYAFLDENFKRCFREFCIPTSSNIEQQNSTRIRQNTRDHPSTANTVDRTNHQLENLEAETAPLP
Note: assay procedure not described here.

T1 sequence (P14867 whole entry): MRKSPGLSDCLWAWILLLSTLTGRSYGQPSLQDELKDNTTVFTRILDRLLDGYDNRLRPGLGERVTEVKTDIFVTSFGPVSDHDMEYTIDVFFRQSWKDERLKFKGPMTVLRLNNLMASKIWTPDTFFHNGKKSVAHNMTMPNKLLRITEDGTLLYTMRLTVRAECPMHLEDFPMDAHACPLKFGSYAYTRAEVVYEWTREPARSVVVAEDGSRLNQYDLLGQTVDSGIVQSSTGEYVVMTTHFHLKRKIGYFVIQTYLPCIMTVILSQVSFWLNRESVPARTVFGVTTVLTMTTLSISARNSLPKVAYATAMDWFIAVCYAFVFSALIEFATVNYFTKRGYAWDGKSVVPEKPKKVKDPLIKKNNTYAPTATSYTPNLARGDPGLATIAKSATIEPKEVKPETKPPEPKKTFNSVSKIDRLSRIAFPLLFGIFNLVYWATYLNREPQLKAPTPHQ
T1 sequence (P47870 whole entry): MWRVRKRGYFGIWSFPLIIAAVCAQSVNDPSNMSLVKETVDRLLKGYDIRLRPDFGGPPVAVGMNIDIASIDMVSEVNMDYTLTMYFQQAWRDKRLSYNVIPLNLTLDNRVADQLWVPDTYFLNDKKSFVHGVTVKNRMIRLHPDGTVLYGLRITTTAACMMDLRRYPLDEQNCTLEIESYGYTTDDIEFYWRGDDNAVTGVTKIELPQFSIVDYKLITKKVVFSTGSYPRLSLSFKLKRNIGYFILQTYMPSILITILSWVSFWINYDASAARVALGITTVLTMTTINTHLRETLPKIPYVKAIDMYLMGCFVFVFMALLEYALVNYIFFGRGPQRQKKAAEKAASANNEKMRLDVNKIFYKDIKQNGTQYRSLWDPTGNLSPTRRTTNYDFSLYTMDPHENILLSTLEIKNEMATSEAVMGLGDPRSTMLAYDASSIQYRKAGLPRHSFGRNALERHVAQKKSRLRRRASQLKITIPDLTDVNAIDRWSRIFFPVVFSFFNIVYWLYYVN
T1 sequence (P18507 whole entry): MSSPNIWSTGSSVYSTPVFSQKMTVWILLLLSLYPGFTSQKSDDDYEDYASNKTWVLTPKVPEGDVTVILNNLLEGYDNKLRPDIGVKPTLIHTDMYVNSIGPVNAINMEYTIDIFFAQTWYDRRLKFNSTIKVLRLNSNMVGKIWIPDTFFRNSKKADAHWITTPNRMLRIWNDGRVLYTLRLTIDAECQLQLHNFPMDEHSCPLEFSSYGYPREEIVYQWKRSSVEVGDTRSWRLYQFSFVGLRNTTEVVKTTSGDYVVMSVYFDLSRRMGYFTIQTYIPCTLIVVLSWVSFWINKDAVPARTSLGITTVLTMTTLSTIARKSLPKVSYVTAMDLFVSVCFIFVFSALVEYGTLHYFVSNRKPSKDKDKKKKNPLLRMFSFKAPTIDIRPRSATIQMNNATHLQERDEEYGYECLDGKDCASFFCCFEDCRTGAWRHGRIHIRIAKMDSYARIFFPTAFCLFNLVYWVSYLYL
T1 sequence (P47869 whole entry): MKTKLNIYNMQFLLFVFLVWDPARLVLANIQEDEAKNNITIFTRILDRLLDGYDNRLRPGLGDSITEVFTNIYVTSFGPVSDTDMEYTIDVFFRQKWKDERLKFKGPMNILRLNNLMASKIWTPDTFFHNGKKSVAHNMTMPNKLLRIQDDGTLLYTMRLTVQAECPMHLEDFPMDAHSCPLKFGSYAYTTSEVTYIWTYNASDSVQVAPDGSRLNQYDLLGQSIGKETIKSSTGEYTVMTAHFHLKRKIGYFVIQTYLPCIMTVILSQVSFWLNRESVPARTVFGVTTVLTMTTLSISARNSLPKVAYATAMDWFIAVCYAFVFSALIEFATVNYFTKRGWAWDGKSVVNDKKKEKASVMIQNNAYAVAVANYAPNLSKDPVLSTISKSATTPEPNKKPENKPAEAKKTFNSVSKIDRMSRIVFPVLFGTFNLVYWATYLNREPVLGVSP

Cc1cc(C2CCCCC2)n(O)c(=O)c1 [CICLOPIROX]
AC50 [1]: > 30 µM

CC(=O)NCCCCCC(=O)O [ACEXAMIC ACID]
AC50 [1]: > 30 µM

CC[C@@H](CO)NC(=O)[C@@H]1C=C2c3cccc4c3c(cn4C)C[C@H]2N(C)C1 [METHYSERGIDE]
AC50 (Estrogen receptor): > 10 µM | AC50 [2]: > 30 µM | AC50 (Cannabinoid receptor 1): > 10 µM | AC50 (Histamine H2 receptor): 2.44 µM | AC50 (B1 bradykinin receptor): > 30 µM

CC(C)[C@@H]1CC[C@@H](C)C[C@H]1O [LEVOMENTHOL]
AC50 [1]: > 30 µM

C[C@H]1O[C@@H](O[C@H]2CC[C@@]3(C)[C@H](CC[C@@H]4[C@@H]3C[C@@H](O)[C@]3(C)[C@@H](C5=CC(=O)OC5)CC[C@]43O)C2)C[C@H](O)[C@@H]1O[C@H]1C[C@H](O)[C@H](O[C@H]2C[C@H](O)[C@H](O[C@@H]3O[C@H](CO)[C@@H](O)[C@H](O)[C@H]3O)[C@@H](C)O2)[C@@H](C)O1 [DESLANOSIDE]
AC50 [1]: > 30 µM

Cc1ccsc1C(=CCCN1CCC[C@@H](C(=O)O)C1)c1sccc1C [TIAGABINE]
AC50 [1]: > 30 µM

CC(C)[C@H](N)C(=O)OCCOCn1cnc2c(=O)[nH]c(N)nc21 [VALACYCLOVIR]
AC50 (Estrogen receptor): > 30 µM | AC50 [2]: > 30 µM | AC50 (Cannabinoid receptor 1): > 10 µM | AC50 (Histamine H2 receptor): > 10 µM | AC50 (B1 bradykinin receptor): > 30 µM

C[N+]1(C)CCCC(OC(=O)C(O)(c2ccccc2)c2ccccc2)C1 (stereo unspecified) [MEPENZOLATE]
AC50 [1]: > 30 µM

C[C@]12C=CC(=O)C=C1CC[C@H]1[C@@H]3C[C@@H](O)[C@](O)(C(=O)CO)[C@@]3(C)C[C@H](O)[C@@]12F [TRIAMCINOLONE]
AC50 [1]: > 30 µM

CC(C)(O/N=C(\C(=O)N[C@@H]1C(=O)N2C(C(=O)[O-])=C(C[n+]3ccccc3)CS[C@H]12)c1csc(N)n1)C(=O)O [CEFTAZIDIME]
AC50 [3]: > 300 µM | AC50 (Estrogen receptor): > 30 µM | AC50 [4]: > 2400 µM | AC50 [5]: > 30 µM | AC50 (Mu-type opioid receptor): > 30 µM

C[N+](C)(C)CCOC(=O)CCC(=O)OCC[N+](C)(C)C [SUXAMETHONIUM]
AC50 [1]: > 30 µM

C=C(C)CNc1ccc(C(C)C(=O)O)cc1 (stereo unspecified) [ALMINOPROFEN]
AC50 [1]: > 30 µM

CC(C(=O)O)c1ccc2oc(-c3ccc(Cl)cc3)nc2c1 (stereo unspecified) [BENOXAPROFEN]
AC50 (Estrogen receptor): > 30 µM | AC50 (Mu-type opioid receptor): > 30 µM

Cc1nnc(SCC2=C(C(=O)O)N3C(=O)[C@@H](NC(=O)Cn4cnnn4)[C@H]3SC2)s1 [CEFAZOLIN]
AC50 [3]: > 300 µM | AC50 (Estrogen receptor): > 30 µM | AC50 [4]: > 2400 µM | AC50 [5]: > 30 µM | AC50 (Mu-type opioid receptor): > 30 µM

Clc1ccc(Cn2c(CN3CCCC3)nc3ccccc32)cc1 [CLEMIZOLE]
AC50 [3]: > 30 µM | AC50 [4]: > 30 µM | AC50 [5]: 15 µM

CC(C(=O)O)c1cccc(Oc2ccccc2)c1 (stereo unspecified) [FENOPROFEN]
AC50 [1]: > 30 µM

CNC(=C[N+](=O)[O-])NCCSCc1csc(CN(C)C)n1 [NIZATIDINE]
AC50 (Cannabinoid receptor 1): > 10 µM | AC50 (Mu-type opioid receptor): > 30 µM

CCCCCCCN(CC)CCCC(O)c1ccc(NS(C)(=O)=O)cc1 (stereo unspecified) [IBUTILIDE]
AC50 [3]: > 30 µM | AC50 (Cannabinoid receptor 1): > 30 µM | AC50 [5]: 25 µM | AC50 (Mu-type opioid receptor): > 30 µM

Cc1onc(-c2c(F)cccc2Cl)c1C(=O)N[C@@H]1C(=O)N2[C@@H]1SC(C)(C)[C@@H]2C(=O)O [FLOXACILLIN]
AC50 [3]: > 30 µM | AC50 [4]: > 30 µM | AC50 [5]: > 30 µM

C[C@H]1CN(C[C@H](Cc2ccccc2)C(=O)NCC(=O)O)CC[C@@]1(C)c1cccc(O)c1 [ALVIMOPAN]
AC50 [1]: > 30 µM

CC(C)Cc1ccc([C@H](C)C(=O)O)cc1 [DEXIBUPROFEN]
AC50 [4]: > 30 µM
